Assay results taken from paper PMC3913682, “A Monoclonal Antibody TrkB Receptor Agonist as a Potential Therapeutic for Huntington’s Disease” (PLoS ONE, 2014).

B1: Brain-derived neurotrophic factor (protein, UniProt P23560 19-247, looked up)
Neurotrophic factor BDNF …: APMKEANIRGQGGLAYPGVRTHGTLESVNGPKAGSRGLTSLADTFEHVIEELLDEDQKVRPNEENNKDADLYTSRVMLSSQVPLEPPLLFLLEEYKNYLDAANMSMRVRRHSDPARRGELSVCDSISEWVTAADKKTAVDMSGGTVTVLEKVPVSKGQLKQYFYETKCNPMGYTKEGCRGIDKRHWNSQCRTTQSYVRALTMDSKKRIGWRFIRIDTSCVCTLTIKRGR
notes: Neuroprotective secreted protein, cognate neurotrophin of TrkB

What was measured:
[1] = target: T1, TrkB (Homo sapiens, UniProt Q16620); assay: CellSensor TrkB-NFAT-bla CHO-K1 reporter gene assay (agonist, antagonist, PAM modes); format: cell-based; design: host or cells: CHO-K1
T1 sequence (Q16620 32-822): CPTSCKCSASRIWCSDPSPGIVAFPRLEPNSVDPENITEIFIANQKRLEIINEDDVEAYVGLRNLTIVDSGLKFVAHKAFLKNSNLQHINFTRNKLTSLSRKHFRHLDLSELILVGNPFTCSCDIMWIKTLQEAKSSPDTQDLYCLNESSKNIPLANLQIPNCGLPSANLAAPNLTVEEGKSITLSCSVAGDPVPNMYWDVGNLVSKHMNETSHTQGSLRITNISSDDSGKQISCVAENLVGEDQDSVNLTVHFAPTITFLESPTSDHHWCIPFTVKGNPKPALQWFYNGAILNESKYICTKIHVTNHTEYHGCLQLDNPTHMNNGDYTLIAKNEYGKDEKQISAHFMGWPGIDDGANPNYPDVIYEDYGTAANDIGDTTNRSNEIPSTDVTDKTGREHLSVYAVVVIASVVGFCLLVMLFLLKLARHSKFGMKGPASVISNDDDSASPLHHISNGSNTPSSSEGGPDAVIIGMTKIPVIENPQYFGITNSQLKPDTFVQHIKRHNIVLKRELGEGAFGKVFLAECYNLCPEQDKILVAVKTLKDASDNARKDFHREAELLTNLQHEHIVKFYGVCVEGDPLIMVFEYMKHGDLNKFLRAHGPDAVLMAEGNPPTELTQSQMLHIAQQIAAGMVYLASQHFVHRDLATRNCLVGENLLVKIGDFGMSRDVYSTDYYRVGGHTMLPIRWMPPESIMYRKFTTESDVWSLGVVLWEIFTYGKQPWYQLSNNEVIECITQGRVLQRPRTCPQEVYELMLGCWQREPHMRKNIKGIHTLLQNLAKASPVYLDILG
Experimental: The assays were configured using Invitrogen CHO-K1 cell lines stably expressing a β-lactamase gene under the control of a NFAT promoter region and the relevant Trk (A, B or C) receptor (except for the Trk null cell line). The activity of the β-lactamase enzyme was quantified via FRET with a fluorescent substrate containing a β-lactam ring, according to manufacturer’s provided protocol. All CellSensor® NFAT-bla CHO-K1 cell lines were seeded into black 384w assay plates in CellSensor® plating media (growth media without antibiotics) at 5,000 cells in a volume of 25 µL per well; cells were incubated at 37°C, 5% CO2 overnight. Then, the assay plating media was removed and replaced with 32 µL of assay media (plating media without serum) and returned to the incubator for 1 hour. […] Test compounds were added (4 µL) and cells were returned to the incubator for 1 hour; dependent on assay mode (agonist, antagonist or positive allosteric modulator) assay media alone (agonist mode), assay media containing EC80 neurotrophin (antagonist mode) or assay media containing EC20 neurotrophin (PAM mode) were then added to the cells (4 µL) for a further 4 hour incubation. ToxBLAzer detection reagent was reconstituted according to the manufacturer’s instructions and 8 µL/well added to the assay plates, these were then incubated at room temperature protected from light for 2 hours. Levels of β-lactamase activity were then quantified by measuring the fluorescent intensity ratio between ^EX400nm/^EM535nm and ^EX400nm/^EM460nm and cytotoxicity quantified by measuring the fluorescence intensity at ^EX590nm/^EM665nm using a Perkin Elmer EnVision.

[2] = Solubility assay under CellSensor assay conditions (HPLC-UV); format: physicochemical; settings: for Concentration @ t = 0: 0 hours; for Concentration @ t = 0 / Concentration @ t = 3 / Concentration @ t = 7: assay buffer, 0.5% DMSO; for Concentration @ t = 3: 3 hours; for Concentration @ t = 7: 7 hours
Experimental: To align with the functional data, all compound samples and dilutions were prepared using the CellSensor® assay conditions that include: assay buffer, plates, sample volumes and the same timeframe. The assay incubation time was 7 hours. 0, 3 and 7 hour samples were analysed, in triplicate, in the final assay buffer (DMEM/Glutamax + NEAA + 20 mM Hepes pH7.4 + 0.01% BSA, final DMSO concentration 0.5%) at nominal compound concentrations of 5, 20 and 50 µM. […] The 7 and 3 hour samples were prepared at times which allowed simultaneous filtering and sample analysis.

[3] = target: T1, TrkB; design: method as in PMID 19549602; settings: hippocampal neurons; cited from earlier work
[4] = target: T1, TrkB; design: host or cells: CHO-K1; settings: cited from earlier work
[5] = system: TrkB phosphorylation; assay: Western blot of TrkB phosphorylation in rat primary cortico-striatal co-cultures; format: cell-based; settings: 15 minutes; non-transfected; Figure 7B, C
Excerpt: (§1) Clarified cell lysates were resolved by SDS-PAGE, blotted onto nitrocellulose membranes and immunoprobed with the relevant primary and secondary antibody combinations. Anti-pTrkB Tyr^516 (4619), anti-pTrkB Tyr^706/707 (4621), anti-pTrkB, Tyr^816 (4168), anti-pERK1/2 […], anti-pAKT […], anti-TrkB (4603), anti-AKT (4685) and anti-ERK1/2 (4695) were sourced from Cell Signalling Technologies. Anti-GAPDH (IMG-5143A) was obtained from Imgenex; Goat anti-rabbit HRP conjugate (PO448) and Goat anti-mouse HRP conjugate (PO447) were sourced from Dako. Goat anti-mouse 800CW conjugate and Goat anti-rabbit 680 conjugate were sourced from LI-COR. Immunoreactive signals were detected using enhanced chemiluminescence reagent (Amersham) or using the Odyssey infra-red reader.

[6] = system: striatal neurons; assay: Primary neuronal mHTT-induced cell death assay (cortico-striatal co-culture); format: cell-based, rat
Excerpt: Cortical and striatal neurons were isolated from E18 rat embryos and separately transfected with a HTT exon1 fragment containing 73 CAG repeats (HTTN90Q73), together with a plasmid encoding for either a green AcGFP or a red AsRed fluorescent reporter before being plated on glial cells and treated with candidate pharmacological agents. After 5 days in culture, the number of fluorescent cells remaining was counted using an automated high content imaging and analysis platform (GE Healthcare InCell 2000) and any changes in neuronal survival quantified.

[7] = system: Hippocampal HT-22 (TrkB-null cell line); design: method as in PMID 21651962; settings: cited from earlier work
[8] = system: Trk null-NFAT-bla CHO-K1 cells; assay: CellSensor Trk null-NFAT-bla CHO-K1 reporter gene assay; format: cell-based; settings: Cricetulus griseus, Figure 2D, 5 hours
Experimental: The assays were configured using Invitrogen CHO-K1 cell lines stably expressing a β-lactamase gene under the control of a NFAT promoter region and the relevant Trk (A, B or C) receptor (except for the Trk null cell line). The activity of the β-lactamase enzyme was quantified via FRET with a fluorescent substrate containing a β-lactam ring, according to manufacturer’s provided protocol. All CellSensor® NFAT-bla CHO-K1 cell lines were seeded into black 384w assay plates in CellSensor® plating media (growth media without antibiotics) at 5,000 cells in a volume of 25 µL per well; cells were incubated at 37°C, 5% CO2 overnight. Then, the assay plating media was removed and replaced with 32 µL of assay media (plating media without serum) and returned to the incubator for 1 hour. […] Levels of β-lactamase activity were then quantified by measuring the fluorescent intensity ratio between ^EX400nm/^EM535nm and ^EX400nm/^EM460nm and cytotoxicity quantified by measuring the fluorescence intensity at ^EX590nm/^EM665nm using a Perkin Elmer EnVision.

[9] = system: TrkB, AKT and ERK1/2 phosphorylation; assay: Western blot of TrkB, AKT and ERK1/2 phosphorylation in TrkB-NFAT-bla CHO-K1 cells; format: cell-based; settings: Figure 6E; for Basal phospho-ERK1/2 immunoreactive bands: LM22A-4 at low (10 µM) and high (83 µM), N-acetyl serotonin at high (83 µM) concentration
Excerpt: as §1

[10] = system: TrkB; design: method as in PMID 20407211; settings: hippocampal neurons; cited from earlier work
[11] = target: T1, TrkB; assay: DiscoveRx PathHunter U2OS TrkB enzyme fragment complementation (EFC) assay; format: cell-based; settings: Figure 6C; read-out: BDNF potency (EC50), PathHunter EFC, agonist mode
Excerpt: The assay was configured using DiscoveRx PathHunter® U2OS cell line stably co-expressing two cDNAs: a ProLink™ (PK) tagged TrkB receptor and an Enzyme Acceptor (EA) tagged SH2 domain. Activation of the TrkB-PK receptor induces receptor dimerization and trans-phosphorylation, leading to SH2-EA recruitment, and thereby forcing complementation of the two β-galactosidase enzyme fragments (EA and PK). The resulting functional enzyme hydrolyzes substrate to generate a chemiluminescent signal. U2OS-TrkB PathHunter® cells were seeded into white 384w assay plates in plating media (1x MEM; 0.5% v/v horse serum) at 10,000 cells in a volume of 20 µL per well, cells were incubated at 37°C, 5% CO2 overnight to adhere to assay plates. Test compounds were added (5 µL) to the cells and the plates were returned to the incubator for 1 hour; dependent on assay mode (agonist, antagonist or positive allosteric modulator) assay media alone (agonist mode), assay media containing EC80 BDNF (antagonist mode) or assay media containing EC20 BDNF (PAM mode) were then added to the cells (5 µL) for a further 4 hour incubation at room temperature. PathHunter® detection reagent was then added (15 µL/well) and incubated at room temperature protected from light for 1 hour. Levels of β-galactosidase activity were then quantified by measuring the chemiluminescent signal obtained using a Perkin Elmer EnVision.

Row | Molecule | Concentration @ t = 0 ([2]; nominal concentration 5 µM) [µM] | Concentration @ t = 3 ([2]; nominal concentration 5 µM) [µM] | Concentration @ t = 7 ([2]; nominal concentration 5 µM) [µM] | Concentration @ t = 0 ([2]; nominal concentration 20 µM) [µM] | Concentration @ t = 3 ([2]; nominal concentration 20 µM) [µM] | Concentration @ t = 7 ([2]; nominal concentration 20 µM) [µM] | Concentration @ t = 0 ([2]; nominal concentration 50 µM) [µM] | Concentration @ t = 3 ([2]; nominal concentration 50 µM) [µM] | Concentration @ t = 7 ([2]; nominal concentration 50 µM) [µM] | Published in vitro activity (in words) [4] | Published in vitro activity: Activity [4] [nM] | other results
1 | CN(C)CCC=C1c2ccccc2CCc2ccccc21 [Amitriptyline] | 3.7 | 4.3 | 3.2 | 7.6 | 7.1 | 5.9 | 33 | 27 | 27 | Neuronal TrkA/B agonist; Neuroprotective | 10 to 250 | PAM activity, NFAT reporter gene assay, PAM mode (in words) ([1]; Figure 6B, in presence of ~EC20 BDNF (40 pM)): concentration-dependent TrkB inhibition; Potency relative to the cognate neurotrophin (less potent) [3]: ~100 fold
2 | O=c1cc(-c2ccccc2)oc2c(O)c(O)ccc12 [7,8-dihydroxyflavone] | 0.49 | 0.24 | 2.3 | 3.0 | 1.9 | 5.2 | 13 | 10 | 13 | Neuronal TrkB agonist; Promotes neurogenesis | 10 to 250 | Induction of TrkB phosphorylation (in words) [5]: failed to mimic the ability of BDNF; Protection of striatal neurons from mHTT-induced cell death (in words) ([6]; Figure 7A): failed to mimic the ability of BDNF; Concentrations at which toxicity was evident ([6]; rat cortico-striatal co-culture): ≥ 20 µM; Compound remaining in solution ([2]; beyond the tested lower concentration of 5 µM, NFAT assay solutions): ~20%; Concentrations showing toxicity effects, HT-22 cell viability [7]: above 20 µM
3 | COc1ccc(C(=O)c2cn(C(C)C)c3ncnc(N)c23)cc1NC(=O)Nc1ccc(Cl)cc1Cl [pan-Trk kinase inhibitor, 1-(5-(4-amino-7-isopropyl-7H-pyrrolo[2,3-d]pyrimidine-5-carbonyl)-2-methoxyphenyl)-3-(2,4-dichlorophenyl)urea] | – | – | – | – | – | – | – | – | – | – | – | Effect on antibody effects in striatal neurons ([6]; data not shown): reversed; Effect on induction of NFAT activity by TrkB mAbs ([1]; co-incubation, pan-Trk inhibitor 100 nM): completely prevented
4 | C/C=C(/C)C(=O)O[C@H]1C(C)=C2[C@H]([C@@H]1OC(=O)CCCCCCC)[C@@](C)(OC(C)=O)C[C@H](OC(=O)CCC)[C@@]1(O)[C@H]2OC(=O)[C@@]1(C)O [Thapsigargin] | – | – | – | – | – | – | – | – | – | – | – | EC50 [8]: 1600 pM
5 | O=C(NCCO)c1cc(C(=O)NCCO)cc(C(=O)NCCO)c1 [LM22A-4] | 7.2 | 7.8 | 11 | 17 | 17 | 20 | 59 | 58 | 64 | TrkB agonist; Neuroprotective | 0.5 to 500 | Induction of TrkB phosphorylation (in words) [5]: failed to mimic the ability of BDNF; Protection of striatal neurons from mHTT-induced cell death (in words) ([6]; Figure 7A): failed to mimic the ability of BDNF; Basal phospho-ERK1/2 immunoreactive bands [9]: absence of immunoreactive bands; Induction of TrkB-Tyr516 phosphorylation [10]: ~30 % of the efficacy of BDNF
6 | COC(=O)[C@H]1[C@H]2C[C@@H]3c4[nH]c5cc(OC)ccc5c4CCN3C[C@H]2C[C@@H](OC(=O)c2cc(OC)c(OC)c(OC)c2)[C@@H]1OC [Reserpine] | 2.8 | 3.0 | 3.7 | 3.4 | 2.9 | 4.5 | 6.7 | 4.5 | 6.9 | – | – | –
7 | CC(=O)NCCc1c[nH]c2ccc(O)cc12 [N-acetyl serotonin] | 7.6 | 8.8 | 10 | 13 | 14 | 17 | 38 | 44 | 49 | Neuronal TrkB agonist | 100 | Basal phospho-ERK1/2 immunoreactive bands [9]: absence of immunoreactive bands
8 | B1 | – | – | – | – | – | – | – | – | – | – | – | EC50 ([6]; Figure 7A, normalized to 1 nM BDNF (100% Rescue) and vehicle (0%), read-out: EC50, % Rescue of striatal neurons from mHTT-induced cell death): 214 pM; EC50 ([1]; Figure 4A, 5 hours, read-out: EC50, TrkB-NFAT-bla reporter, agonist mode): 145 pM; EC50 ([1]; Figure 6A, read-out: BDNF potency (EC50), CellSensor NFAT reporter, agonist mode): 323 pM; TrkB, ERK1/2 and AKT phosphorylation (pathway activation) ([9]; 5 hours treatment): induced phosphorylation of TrkB, ERK1/2 and AKT; EC50 [11]: 823 pM
